PMC5831360 (Nature chemical biology, 2017)
Values joined by “and” are separate entries in the source; they are usually repeats but may differ in a detail not shown here. Equal values may be shown once.

Assays:
[1] = tested on: Spindlin1-H3K4me3 interaction; details: read-out: IC50, in vitro inhibition of Spindlin1-H3K4me3 interaction; AlphaLISA; cited from earlier work
[2] = tested on: SPIN1; details: cited from earlier work
[3] = molecular target: Spindlin1 (SPIN1), three Tudor domains (Homo sapiens, UniProt Q9Y657); assay: Protein domain microarray probing with biotin-tagged compounds; assay type: binding; details: biotinylated compound, 1 μM, Cy3-streptavidin
Sequence of Spindlin1 (SPIN1), three Tudor domains (Q9Y657 whole entry, the tested form may be a part): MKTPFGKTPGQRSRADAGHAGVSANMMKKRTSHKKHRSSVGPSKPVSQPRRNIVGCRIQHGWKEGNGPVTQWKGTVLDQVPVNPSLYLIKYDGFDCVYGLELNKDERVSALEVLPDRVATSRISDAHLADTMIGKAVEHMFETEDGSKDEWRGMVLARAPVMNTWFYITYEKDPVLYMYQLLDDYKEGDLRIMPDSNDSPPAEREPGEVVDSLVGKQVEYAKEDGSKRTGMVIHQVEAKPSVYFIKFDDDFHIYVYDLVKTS

[4] = tested on: SPIN1 target genes (rRNA, IL1B, BST2, C1QTNF1, ALDH1A3, IFI44L) in T778 cells; assay: RT-qPCR of SPIN1-regulated genes after compound treatment; assay type: cell-based, human; details: 4 days
[5] = tested on: SPIN1 target genes in GFP-SPIN1 transfected T778 cells; assay: RT-qPCR of SPIN1 target genes after GFP-SPIN1 overexpression; assay type: cell-based, human; details: 10 μM, 24 h after GFP-SPIN1 transfection
[6] = molecular target: GFP-SPIN1 in transfected HeLa cells (Homo sapiens, UniProt Q9Y657); assay: Cellular thermal shift assay; assay type: cell-based; details: 20 μM, overnight
Sequence of GFP-SPIN1 in transfected HeLa cells (Q9Y657 whole entry): as the sequence (Q9Y657 whole entry, the tested form may be a part) above

[7] = molecular target: SPIN1-H3K4me3 interaction (Homo sapiens, UniProt Q9Y657); assay: Competition pulldown, bead-bound H3K4me3 peptide and GST-SPIN1; assay type: binding; details: untagged compound, increasing concentrations
Sequence of SPIN1-H3K4me3 interaction (Q9Y657 50-262): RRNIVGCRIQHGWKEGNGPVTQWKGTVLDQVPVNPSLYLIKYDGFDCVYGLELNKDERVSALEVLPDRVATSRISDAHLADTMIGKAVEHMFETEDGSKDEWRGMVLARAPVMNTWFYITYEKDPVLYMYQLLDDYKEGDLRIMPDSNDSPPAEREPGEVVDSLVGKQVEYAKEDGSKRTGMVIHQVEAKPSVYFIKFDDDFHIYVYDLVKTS

[8] = molecular target: SPIN1-TCF4 interaction (Homo sapiens, UniProt Q9Y657); assay: SPIN1-TCF4 interaction assay; assay type: binding
Sequence of SPIN1-TCF4 interaction (Q9Y657 whole entry, the tested form may be a part): as the sequence (Q9Y657 whole entry, the tested form may be a part) above

[9] = tested on: subset of MBT domains; assay: Protein domain microarray probing with biotin-tagged compounds; assay type: binding, human; details: biotinylated compound, 1 μM, Cy3-streptavidin
[10] = molecular target: T1, Tudor domains of 53BP1 (Homo sapiens, UniProt Q12888); assay: as above; assay type: binding; details: biotinylated compound, 1 μM, Cy3-streptavidin
T1 sequence (Q12888 1484-1603 limits assumed): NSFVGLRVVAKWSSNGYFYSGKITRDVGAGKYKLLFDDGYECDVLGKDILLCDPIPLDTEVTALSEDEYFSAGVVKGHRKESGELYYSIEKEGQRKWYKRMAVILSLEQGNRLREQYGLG

[11] = molecular target: GFP-SPIN1(FL) (Homo sapiens, UniProt Q9Y657); assay type: binding; details: HEK293 whole cell lysate, bead-immobilized biotinylated compound
Sequence of GFP-SPIN1(FL) (Q9Y657 whole entry, the tested form may be a part): as the sequence (Q9Y657 whole entry, the tested form may be a part) above

[12] = tested on: PHF20L1; assay: Protein domain microarray probing with biotin-tagged compounds; assay type: binding, human; details: biotinylated compound, 1 μM, Cy3-streptavidin
[13] = molecular target: yeast Tudor domain (SPF30^sp) (Schizosaccharomyces pombe, UniProt O94519); assay: as above; assay type: binding; details: biotinylated compound, 1 μM, Cy3-streptavidin
Sequence of yeast Tudor domain (SPF30^sp) (O94519 76-139 limits assumed): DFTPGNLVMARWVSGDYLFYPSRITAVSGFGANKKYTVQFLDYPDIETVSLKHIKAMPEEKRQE

[14] = molecular target: SPIN1 (SPIN1_50–262) (Homo sapiens, UniProt Q9Y657); assay: Isothermal titration calorimetry; assay type: binding; details: read-out: dissociation constant (Kd) with SPIN1; ITC, 25 °C, pH 7.5
Sequence of SPIN1 (SPIN1_50–262) (Q9Y657 50-262): as the sequence (Q9Y657 50-262) above

[15] = molecular target: Tudor domains of PHF20 (Homo sapiens, UniProt Q9BVI0); assay: Protein domain microarray probing with biotin-tagged compounds; assay type: binding; details: biotinylated compound, 1 μM, Cy3-streptavidin
Target sequence in this assay (Q9BVI0 4-147): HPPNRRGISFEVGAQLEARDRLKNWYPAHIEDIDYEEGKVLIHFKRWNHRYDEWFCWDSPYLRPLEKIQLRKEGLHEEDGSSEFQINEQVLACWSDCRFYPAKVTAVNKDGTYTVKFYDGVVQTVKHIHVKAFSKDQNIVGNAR

[16] = molecular target: recombinant SPIN1 (Homo sapiens, UniProt Q9Y657); assay: In vitro thermal shift assay; assay type: binding; details: 100 μM compound, 1 mg/mL SPIN1, Sypro Orange
Sequence of recombinant SPIN1 (Q9Y657 50-262): as the sequence (Q9Y657 50-262) above

[17] = molecular target: MBT domains of L3MBTL3 (Homo sapiens, UniProt Q96JM7); assay: Isothermal titration calorimetry; assay type: binding; details: Kd for L3MBTL3, ITC counter screen
Sequence of MBT domains of L3MBTL3 (Q96JM7 232-543 limits assumed): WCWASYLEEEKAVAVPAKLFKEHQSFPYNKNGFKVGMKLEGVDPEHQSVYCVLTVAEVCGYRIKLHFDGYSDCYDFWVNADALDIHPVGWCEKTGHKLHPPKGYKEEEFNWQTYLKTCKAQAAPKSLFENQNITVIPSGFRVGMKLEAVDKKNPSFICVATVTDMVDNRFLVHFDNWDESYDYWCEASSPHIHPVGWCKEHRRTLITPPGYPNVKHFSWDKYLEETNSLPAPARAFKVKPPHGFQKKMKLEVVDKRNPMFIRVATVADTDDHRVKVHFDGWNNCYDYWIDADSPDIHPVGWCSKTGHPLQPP

[18] = molecular target: T1, Tudor domains of 53BP1; assay: Isothermal titration calorimetry; assay type: binding; details: Kd for 53BP1, ITC counter screen
[19] = molecular target: SPIN4 (Homo sapiens, UniProt Q56A73); assay: Chemiprecipitation of SPIN family members with tagged compound; assay type: binding
Sequence of SPIN4 (Q56A73 whole entry, the tested form may be a part): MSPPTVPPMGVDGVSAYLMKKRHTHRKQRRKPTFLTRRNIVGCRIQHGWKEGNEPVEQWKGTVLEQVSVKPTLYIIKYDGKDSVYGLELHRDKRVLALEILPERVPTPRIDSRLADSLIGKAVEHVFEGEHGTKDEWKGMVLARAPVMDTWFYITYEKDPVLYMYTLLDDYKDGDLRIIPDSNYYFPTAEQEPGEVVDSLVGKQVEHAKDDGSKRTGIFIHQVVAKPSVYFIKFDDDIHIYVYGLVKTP

[20] = molecular target: Tudor domains of PHF20 (Homo sapiens, UniProt Q9BVI0); assay: Isothermal titration calorimetry; assay type: binding; details: Kd for PHF20, ITC counter screen
Target sequence in this assay (Q9BVI0 83-147 limits assumed): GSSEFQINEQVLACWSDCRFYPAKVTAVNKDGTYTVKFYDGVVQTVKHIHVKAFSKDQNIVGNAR

[21] = tested on: T778 liposarcoma cells; assay: RNA-seq of compound-treated versus SPIN1 knockdown cells; assay type: cell-based, human; details: 10 μM, 3 days
[22] = tested on: GFP-SPIN1 recruitment to promoter regions of rDNA and IL1B in T778 cells; assay: α-GFP ChIP-qPCR of SPIN1 chromatin association; assay type: cell-based, human; details: 10 μM, overnight
[23] = molecular target: MBT domains of L3MBTL1 (Homo sapiens, UniProt Q9Y468); assay: Isothermal titration calorimetry; assay type: binding; details: Kd for L3MBTL1, ITC counter screen
Sequence of MBT domains of L3MBTL1 (Q9Y468 274-585 limits assumed): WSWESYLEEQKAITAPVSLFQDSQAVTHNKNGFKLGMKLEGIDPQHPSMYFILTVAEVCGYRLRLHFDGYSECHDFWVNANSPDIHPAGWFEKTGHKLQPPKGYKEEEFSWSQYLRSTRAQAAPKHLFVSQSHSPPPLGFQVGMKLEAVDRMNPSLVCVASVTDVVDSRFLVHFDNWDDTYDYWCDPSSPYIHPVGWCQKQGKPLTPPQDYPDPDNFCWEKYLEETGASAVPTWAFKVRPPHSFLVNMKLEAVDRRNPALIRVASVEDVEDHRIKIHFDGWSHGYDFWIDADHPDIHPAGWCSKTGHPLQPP

[24] = tested on: SPIN2a/b; assay: Chemiprecipitation of SPIN family members with tagged compound; assay type: binding
[25] = molecular target: GFP-53BP1 (Homo sapiens, UniProt Q12888); assay type: binding; details: HEK293T whole cell lysate, bead-immobilized biotinylated compound
Sequence of GFP-53BP1 (Q12888 1144-1709): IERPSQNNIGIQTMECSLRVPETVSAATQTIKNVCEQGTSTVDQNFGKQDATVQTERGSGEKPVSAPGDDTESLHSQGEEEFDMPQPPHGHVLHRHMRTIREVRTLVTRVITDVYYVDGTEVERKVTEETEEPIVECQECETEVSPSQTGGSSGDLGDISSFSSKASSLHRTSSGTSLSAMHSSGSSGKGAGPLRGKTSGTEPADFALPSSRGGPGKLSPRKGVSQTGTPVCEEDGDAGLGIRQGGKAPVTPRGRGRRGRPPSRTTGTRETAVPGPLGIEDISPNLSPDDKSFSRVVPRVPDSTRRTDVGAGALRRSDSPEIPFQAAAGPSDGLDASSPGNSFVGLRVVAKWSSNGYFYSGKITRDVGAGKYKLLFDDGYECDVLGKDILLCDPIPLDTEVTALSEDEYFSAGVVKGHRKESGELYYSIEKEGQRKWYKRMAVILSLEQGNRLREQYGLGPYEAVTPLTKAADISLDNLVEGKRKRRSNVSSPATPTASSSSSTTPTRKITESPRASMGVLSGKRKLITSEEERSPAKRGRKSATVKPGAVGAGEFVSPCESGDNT

Structure (SMILES): COc1cc2c(cc1OCCCN1CCCC1)N=C(N)C21CCC1 [A366]
- IC50 [1]: ~0.2 µM
- cell-based activity [2]: 100 µM

Structure (SMILES): O=C(c1ccc(C(=O)N2CCC(CCN3CCCC3)CC2)c(Nc2ccccc2)c1)N1CCC(CCN2CCCC2)CC1 [EML405]
- binding to Spindlin1 on protein domain microarray [3]: bound strongly
- expression levels of six SPIN1-regulated candidate genes ([4]; 20 μM): decrease in the expression levels of all six candidate genes
- SPIN1-overexpression-elevated expression of target genes [5]: dramatically attenuated
- stabilization of GFP-SPIN1 at high temperatures (CETSA) [6]: stabilization
- inhibition of H3K4me3 peptide - GST-SPIN1 interaction [7]: higher concentrations of EML405 than EML631–633 were needed to inhibit the interaction
- block of SPIN1-TCF4 interaction [8]: blocked this interaction
- binding to a subset of MBT domains on protein domain microarray [9]: bound strongly
- binding to Tudor domains of 53BP1 on protein domain microarray [10]: bound strongly
- pulldown of GFP-SPIN1 by tagged compound [11]: detected the pulldown of GFP-SPIN1
- binding to PHF20L1 on protein domain microarray [12]: bound strongly
- binding to yeast Tudor domain SPF30^sp on protein domain microarray [13]: bound strongly
- Kd [14]: 15 µM
- binding to Tudor domains of PHF20 on protein domain microarray [15]: bound strongly
- increase of melting temperature of SPIN1 [16]: 5 °C

Structure (SMILES): O=C(c1ccc(C(=O)N2CCC(CCN3CCCC3)CC2)c(Nc2ccc(OCN3CCCC3)cc2)c1)N1CCC(CCN2CCCC2)CC1 [EML631]
- expression levels of six SPIN1-regulated candidate genes ([4]; 10 μM): decrease in the expression levels of all six candidate genes
- SPIN1-overexpression-elevated expression of target genes [5]: dramatically attenuated
- Kd [17]: < 100 µM and > 100 µM
- Kd [18]: < 100 µM and > 100 µM
- interaction of tagged compound with SPIN4 [19]: no interaction
- Kd [20]: < 100 µM and > 100 µM
- transcripts down regulated in both SPIN1 knockdown and compound-treated cells [21]: 655
- GFP-SPIN1 recruitment to promoter regions of rDNA and IL1B [22]: recruitment was blocked
- Kd [23]: < 100 µM and > 100 µM
- pulldown of SPIN2a/b by tagged compound [24]: reduced pulldown

Structure (SMILES): O=C(c1ccc(C(=O)N2CCC(N3CCCC3)CC2)c(Nc2ccccc2)c1)N1CCC(N2CCCC2)CC1 [UNC1215, reference compound]
- stabilization of GFP-SPIN1 at high temperatures (CETSA) [6]: not with UNC1215
- inhibition of H3K4me3 peptide - GST-SPIN1 interaction [7]: not active
- interaction of tagged compound with GFP-53BP1 [25]: able to interact with GFP-53BP1
